Measured values published in US20240300958A1, “COMPOUNDS AND THE USES AND PHARMACEUTICAL COMPOSITIONS THEREOF” (BEIJING YOUZHUJU NETWORK TECHNOLOGY CO. LTD., priority 2023, published 2024).

Tests used:
[1] = molecular target: phosphorylated DDR1 (p-DDR1) (Homo sapiens (Human), UniProt Q08345); assay: Inhibition of phosphorylated DDR1 (p-DDR1) in T47D cells stimulated with rat tail collagen (western blot); assay type: cell-based
Description: Human breast ductal carcinoma cell line T47D cells were inoculated in a 6-well plate and incubated overnight at 37° C. and 5% CO2. After the cells are prepared, 2 μL of Compound C1 (DMSO solution of gradient concentrations) was added to a cell plate which was incubated at 37° C. and 5% CO2 for 24 hours. Rat tail collagen (capable of stimulating DDR1 phosphorylation) was added to the cell plate followed by incubation for 2 hours at 37° C. and 5% CO2. Harvest of cell lysates: culture medium was aspirated as much as possible at the end of the culture until the wells were almost dry. 200 μL of ice-cold lysis buffer was added. Lysate was collected into a 1.5 mL eppendorf tube through scraping. Brief vortex was followed by spin at 12000 rpm for 15 minutes in a refrigerated centrifuge. 5× protein electrophoresis loading buffer was added and then the sample was boiled. The sample supernatant was added to a SDS-PAGE gel, followed by electrophoresis, electrotransfer, blocking, primary antibody (anti-phospho-DDR1 antibody and anti-GAPDH antibody) incubation, washing, secondary antibody incubation, washing, and fluorescence development.

[2] = system: α-smooth muscle actin (α-SMA) expression; assay: Inhibition of DDR1-mediated lung fibrosis (α-SMA expression) in hTGFβ1-stimulated MRC-5 cells (western blot); assay type: cell-based, Human; details: for Ratio of α-SMA to GAPDH / α-SMA signal: hTGFβ1 2.5 ng/ml
Description: Human embryonic lung fibroblast MRC-5 cells were inoculated in a 6-well plate and incubated overnight at 37° C. and 5% CO2. 2 μL of compound C1 (gradient concentration in DMSO solution) was added to a cell plate with prepared cells, and was incubated overnight at 37° C. and 5% CO2. hTGFβ1 (which can stimulate DDR1-mediated lung fibrosis manifested by up-regulation of α-smooth muscle actin (α-SMA) expression) was added to the cell plate and incubated at 37° C. and 5% CO2 for 2 hours. Harvest of cell lysates: culture medium was aspirated as much as possible at the end of the culture until the wells were almost dry. 200 μL of ice-cold lysis buffer was added. Lysate was collected into a 1.5 mL eppendorf tube through scraping. Brief vortex was followed by spinning at 12000 rpm for 15 minutes in a refrigerated centrifuge. 5× protein electrophoresis loading buffer was added and then the sample was boiled. The sample supernatant was added to a SDS-PAGE gel, followed by electrophoresis, electrotransfer, blocking, primary antibody (anti-α-SMA antibody and anti-GAPDH antibody) incubation, washing, secondary antibody incubation, washing, and fluorescence development.

DDR1 = DDR1 (Homo sapiens (Human), UniProt Q08345); assay: DDR1 kinase inhibition assay (FAM-labeled peptide), IC50; assay type: biochemical
Sequence of DDR1 (Q08345 other isoform, or with tags, fused parts or gaps isoform Q08345-2): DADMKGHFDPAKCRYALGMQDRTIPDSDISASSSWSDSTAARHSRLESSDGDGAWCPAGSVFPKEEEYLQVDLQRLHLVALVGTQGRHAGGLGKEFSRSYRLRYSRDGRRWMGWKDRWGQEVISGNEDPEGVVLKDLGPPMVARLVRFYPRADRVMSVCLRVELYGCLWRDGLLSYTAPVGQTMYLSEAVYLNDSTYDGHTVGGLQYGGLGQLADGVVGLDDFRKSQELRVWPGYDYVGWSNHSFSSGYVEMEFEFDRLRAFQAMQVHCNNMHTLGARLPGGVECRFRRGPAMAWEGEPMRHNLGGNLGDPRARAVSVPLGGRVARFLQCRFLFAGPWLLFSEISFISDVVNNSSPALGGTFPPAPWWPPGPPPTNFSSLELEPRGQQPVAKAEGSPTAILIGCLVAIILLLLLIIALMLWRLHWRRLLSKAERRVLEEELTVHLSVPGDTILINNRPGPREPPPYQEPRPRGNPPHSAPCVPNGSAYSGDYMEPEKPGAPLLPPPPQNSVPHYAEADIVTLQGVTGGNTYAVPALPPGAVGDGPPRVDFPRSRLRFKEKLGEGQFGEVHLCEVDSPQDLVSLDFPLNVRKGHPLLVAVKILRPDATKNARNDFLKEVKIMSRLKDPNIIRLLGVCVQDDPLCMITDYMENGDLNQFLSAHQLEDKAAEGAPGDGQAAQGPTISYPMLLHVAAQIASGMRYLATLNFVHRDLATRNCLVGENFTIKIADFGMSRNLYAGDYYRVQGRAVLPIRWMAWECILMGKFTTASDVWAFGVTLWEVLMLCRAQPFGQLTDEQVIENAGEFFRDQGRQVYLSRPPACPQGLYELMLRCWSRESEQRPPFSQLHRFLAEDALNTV
Description: 1× kinase base buffer (50 mM HEPES, pH 7.5, 0.0015% Brij-35) and a stop buffer (100 mM HEPES, pH 7.5, 0.015% Brij-35, 0.2% Coating Reagent #3, 50 mM EDTA) were prepared for testing kinases.
The compounds were diluted with 100% DMSO to 100 times the highest final inhibitor concentration required in the reaction. 100 μl of dilution of the compound was transferred to wells of a 96-well plate. For example, 100000 nM solution of the compound in DMSO was prepared in this step in case that an inhibitor concentration of 1000 nM is required. 100 μl of 100% DMSO was added to two empty wells of a 96-well plate for no compound control and no enzyme control. This plate was labeled as the source plate. A new 96-well plate with 5 μl of compound transferred from the source plate is used as an intermediate plate. 95 μl of 1× kinase buffer was added to each well of the intermediate plate. The compounds in the intermediate plate was mixed on a shaker for 10 minutes.
5 μl of sample in each well from the 96-well intermediate plate was transferred to the 384-well plate in duplicate. For example, well A1 of the 96-well plate was transferred to wells A2 and A1 of the 384-well plate, and well A2 of the 96-well plate was transferred to wells A3 and A4 of the 384-well plate, and so forth. 2.5× enzyme solution was prepared: 1× kinase basal buffer with added kinase. 2.5× peptide solution was prepared: 1× kinase basal buffer with added FAM-labeled peptide and ATP. To an assay plate already contained 5 μl of 10% dimethyl sulfoxide compound, 2.5× enzyme solution was transferred, and each well of the 384-well assay plate was added 10 μl of 2.5× enzyme solution. After incubation at room temperature for 10 minutes, 2.5× peptide solution was transferred to the assay plate. Each well of the 384-well assay plate was added 10 μl of 2.5× peptide solution. Kinase reaction and termination: incubation at 28° C. for a specified period followed by the addition of 25 μl stop buffer to stop the reaction. The data was read and collected.

Sequence of phosphorylated DDR1 (p-DDR1) (Q08345 19-913): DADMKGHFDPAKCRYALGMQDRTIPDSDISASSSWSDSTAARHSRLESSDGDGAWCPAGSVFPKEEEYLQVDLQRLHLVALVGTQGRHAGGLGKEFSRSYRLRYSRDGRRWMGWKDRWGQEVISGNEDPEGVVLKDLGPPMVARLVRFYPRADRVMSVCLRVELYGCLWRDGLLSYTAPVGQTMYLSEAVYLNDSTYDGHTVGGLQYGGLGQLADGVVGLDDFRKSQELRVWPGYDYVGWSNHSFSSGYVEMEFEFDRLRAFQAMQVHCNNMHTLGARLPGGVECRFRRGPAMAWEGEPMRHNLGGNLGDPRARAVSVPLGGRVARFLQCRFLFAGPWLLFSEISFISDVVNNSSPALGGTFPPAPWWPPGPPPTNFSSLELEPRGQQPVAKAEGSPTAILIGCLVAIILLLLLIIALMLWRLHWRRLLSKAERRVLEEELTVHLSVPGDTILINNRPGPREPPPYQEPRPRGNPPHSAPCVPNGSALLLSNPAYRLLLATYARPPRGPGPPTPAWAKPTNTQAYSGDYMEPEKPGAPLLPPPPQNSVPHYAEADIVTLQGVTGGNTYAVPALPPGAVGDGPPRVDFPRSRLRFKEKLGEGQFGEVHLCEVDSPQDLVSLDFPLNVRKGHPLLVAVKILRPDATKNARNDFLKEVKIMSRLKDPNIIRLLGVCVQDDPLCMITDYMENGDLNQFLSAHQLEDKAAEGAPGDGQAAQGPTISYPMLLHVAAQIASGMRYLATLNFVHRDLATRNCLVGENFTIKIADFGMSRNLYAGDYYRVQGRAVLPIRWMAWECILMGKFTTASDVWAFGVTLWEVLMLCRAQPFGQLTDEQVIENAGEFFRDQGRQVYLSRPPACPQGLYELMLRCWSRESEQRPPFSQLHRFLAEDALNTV

Ratio of p-DDR1 to GAPDH ([1]; compound C1 1.5 nM): 0.3282
inhibition at 0.0015 µM ([1]; compound C1 1.5 nM): 51.5%
p-DDR1 signal ([1]; compound C1 1.5 nM): 490770
Ratio of p-DDR1 to GAPDH ([1]; compound C1 4.6 nM): 0.2221
inhibition at 0.0046 µM ([1]; compound C1 4.6 nM): 67.7%
p-DDR1 signal ([1]; compound C1 4.6 nM): 350490
Ratio of p-DDR1 to GAPDH ([1]; compound C1 13.7 nM): 0.3020
inhibition at 0.0137 µM ([1]; compound C1 13.7 nM): 55.5%
p-DDR1 signal ([1]; compound C1 13.7 nM): 417870
Ratio of p-DDR1 to GAPDH ([1]; compound C1 41.1 nM): 0.4145
inhibition at 0.0411 µM ([1]; compound C1 41.1 nM): 38.4%
p-DDR1 signal ([1]; compound C1 41.1 nM): 583470
Ratio of p-DDR1 to GAPDH ([1]; compound C1 123 nM): 0.2107
inhibition at 0.123 µM ([1]; compound C1 123 nM): 69.4%
p-DDR1 signal ([1]; compound C1 123 nM): 313140
Ratio of p-DDR1 to GAPDH ([1]; compound C1 370 nM): 0.1244
inhibition at 0.37 µM ([1]; compound C1 370 nM): 82.5%
p-DDR1 signal ([1]; compound C1 370 nM): 164340
Ratio of p-DDR1 to GAPDH ([1]; compound C1 1111 nM): 0.0363
inhibition at 1.111 µM ([1]; compound C1 1111 nM): 95.9%
p-DDR1 signal ([1]; compound C1 1111 nM): 51870
Ratio of p-DDR1 to GAPDH ([1]; compound C1 3333 nM): 0.0183
inhibition at 3.333 µM ([1]; compound C1 3333 nM): 98.7%
p-DDR1 signal ([1]; compound C1 3333 nM): 27360
Ratio of p-DDR1 to GAPDH ([1]; compound C1 10000 nM): 0.0094
inhibition at 10 µM ([1]; compound C1 10000 nM): 100%
p-DDR1 signal ([1]; compound C1 10000 nM): 14730
IC50 (DDR1): 0.023 µM
SMILES: Cc1ccc(C(=O)Nc2ccccn2)cc1C#Cc1cnc2cc(C3=CCCCC3)cnn12 [Compound C1, 3-{2-[7-(cyclohex-1-en-1-yl)imidazo[1,2-b]pyridazin-3-yl]ethynyl}-4-methyl-N-(pyridin-2-yl)benzamide]
Inhibition of the phosphorylation of DDR1 at the cellular level (in words) [1]: can inhibit the phosphorylation of DDR1 at the cellular level
Inhibition of DDR1-mediated lung fibrosis at the cellular level (in words) [2]: can inhibit DDR1-mediated lung fibrosis at the cellular level
inhibition at 0.00244 µM ([2]; Homo sapiens, MRC5, hTGFβ1 2.5 ng/ml, compound C1 2.44 nM): 103%
inhibition at 0.00977 µM ([2]; Homo sapiens, MRC5, hTGFβ1 2.5 ng/ml, compound C1 9.77 nM): 103%
inhibition at 0.03906 µM ([2]; Homo sapiens, MRC5, hTGFβ1 2.5 ng/ml, compound C1 39.06 nM): 103%
inhibition at 0.15625 µM ([2]; Homo sapiens, MRC5, hTGFβ1 2.5 ng/ml, compound C1 156.25 nM): 109%
inhibition at 0.625 µM ([2]; Homo sapiens, MRC5, hTGFβ1 2.5 ng/ml, compound C1 625.00 nM): 48.2%
inhibition at 2.5 µM ([2]; Homo sapiens, MRC5, hTGFβ1 2.5 ng/ml, compound C1 2500.00 nM): 11.7%
Ratio of α-SMA to GAPDH ([2]; compound C1 2.44 nM): 1.1612
α-SMA signal ([2]; compound C1 2.44 nM): 1390356
Ratio of α-SMA to GAPDH ([2]; compound C1 9.77 nM): 1.1646
α-SMA signal ([2]; compound C1 9.77 nM): 1386165
Ratio of α-SMA to GAPDH ([2]; compound C1 39.06 nM): 1.1681
α-SMA signal ([2]; compound C1 39.06 nM): 1304919
Ratio of α-SMA to GAPDH ([2]; compound C1 156.25 nM): 1.2342
α-SMA signal ([2]; compound C1 156.25 nM): 1353660
Ratio of α-SMA to GAPDH ([2]; compound C1 625.00 nM): 0.5459
α-SMA signal ([2]; compound C1 625.00 nM): 629772
Ratio of α-SMA to GAPDH ([2]; compound C1 2500.00 nM): 0.1330
α-SMA signal ([2]; compound C1 2500.00 nM): 4686
